Source: patent publication US20200288710A1, “SUBSTITUTED SULPHONAMIDES FOR CONTROLLING ANIMAL PESTS” (BAYER CROPSCIENCE AKTIENGESELLSCHAFT, priority 2016, published 2020)

Tests used:
Myzus persicae [1] = assay: Myzus persicae spray test (Chinese cabbage leaf discs); type: in vivo; details: foliar, 120 h, 500 g/ha, after 5-6 days, read-out: efficacy
Method: Myzus persicae—Spray Test Solvent: 78 parts by weight of acetone • • 1.5 parts by weight of dimethylformamide Emulsifier: alkylaryl polyglycol ether To produce a suitable preparation of active compound, 1 part by weight of active compound is dissolved using the specified parts by weight of solvent and made up with water containing an emulsifier concentration of 1000 ppm until the desired concentration is attained. To produce further test concentrations, the formulation is diluted with emulsifier-containing water. Discs of Chinese cabbage leaves (Brassica pekinensis) infested by all stages of the green peach aphid (Myzus persicae) are sprayed with an active compound preparation of the desired concentration. After 5-6 days, the efficacy in % is determined. 100% means that all the aphids have been killed; 0% means that no aphids have been killed.

Myzus persicae [2] = assay: Myzus persicae oral test; type: in vivo; details: 120 h, 20 ppm, oral uptake, after 5 days, read-out: efficacy
Method: Myzus persicae—Oral Test Solvent: 100 parts by weight of acetone To produce a suitable preparation of active compound, 1 part by weight of active compound is dissolved using the specified parts by weight of solvent and made up with water until the desired concentration is attained. 50 μl of the active compound preparation are transferred into microtitre plates and made up to a final volume of 200 μl with 150 μl of IPL41 insect medium (33%+15% sugar). Subsequently, the plates are sealed with parafilm, which a mixed population of green peach aphids (Myzus persicae) within a second microtitre plate is able to puncture and imbibe the solution through it. After 5 days, the efficacy in % is determined. 100% means that all the aphids have been killed; 0% means that no aphids have been killed.

Row | SMILES | pest or weed control at 500 g/ha (Myzus persicae [1]) [%] | pest or weed control at 20 ppm (Myzus persicae [2]) [%]
1 | CCn1cc(S(=O)(=O)NC(=O)c2cn(C)c(-c3c(F)cccc3F)n2)c(C)n1 [Example 181] | 100 | 90
2 | CCc1ccccc1S(=O)(=O)NC(=O)c1cc(C)n(-c2ncccc2Br)n1 [Example 298] | 100 | 100
3 | COc1ccccc1S(=O)(=O)NC(=O)c1cn(C)c(-c2sccc2Cl)n1 [Example 549] | 100 | 100
4 | Cc1ccc(F)cc1S(=O)(=O)NC(=O)c1cn(C)c(-c2ncccc2F)n1 [Example 562] | 100 | 100
5 | Cn1cc(C(=O)NS(=O)(=O)c2ccccc2Cl)nc1-c1ncccc1Br [Example 578] | 100 | 100
6 | Cn1cc(C(=O)NS(=O)(=O)c2cnccc2Cl)nc1-c1ccccc1Cl [Example 220] | 100 | 100
7 | COc1ccc(Cl)c(C)c1S(=O)(=O)NC(=O)c1cn(C)c(-c2c(F)cccc2F)n1 [Example 433] | 90 | 100
8 | CCn1cc(C(=O)NS(=O)(=O)c2ccccc2OC)nc1-c1c(F)cccc1F [Example 569] | 100 | 100
9 | Cn1cc(C(=O)NS(=O)(=O)c2c(Cl)cccc2Br)nc1-c1ncccc1Cl [Example 589] | 100 | 100
10 | CCc1ccc(OC)c(S(=O)(=O)NC(=O)c2cn(C)c(-c3ccccc3Cl)n2)c1 [Example 278] | 100 | 100
11 | Cc1ccsc1S(=O)(=O)NC(=O)c1cn(C)c(-c2ncccc2Cl)n1 [Example 592] | 100 | 100
12 | Cn1cc(C(=O)NS(=O)(=O)c2ccccc2Cl)nc1-c1ccccc1C(F)(F)F [Example 115] | 100 | 90
13 | Cn1cc(C(=O)NS(=O)(=O)c2c(Cl)cccc2C(F)(F)F)nc1-c1ncccc1F [Example 609] | 90 | 100
14 | CCS(=O)(=O)NC(=O)c1cn(-c2ccccc2)c(-c2ccccc2Cl)n1 [Example 75] | 100 | 90
15 | COc1ccc(OC)c(S(=O)(=O)NC(=O)c2cn(C)c(-c3cccc(Cl)c3Cl)n2)c1 [Example 462] | 90 | 90
16 | Cn1cc(C(=O)NS(=O)(=O)c2ccccc2Br)nc1-c1ncccc1F [Example 564] | 100 | 100
17 | COc1ccc(Br)cc1S(=O)(=O)NC(=O)c1cn(C)c(-c2cccc(Cl)c2Cl)n1 [Example 559] | 100 | 100
18 | CCc1ccsc1S(=O)(=O)NC(=O)c1cn(C)c(-c2ncccc2F)n1 [Example 604] | 90 | 90
19 | Cc1ccccc1-c1nc(C(=O)NS(=O)(=O)c2ccccc2C(F)(F)F)cn1C [Example 28] | 100 | 100
20 | Cn1c(C(=O)NS(=O)(=O)c2ccccc2Br)cnc1-c1c(F)cccc1F [Example 162] | 90 | 100
21 | COc1ccc(Cl)c(S(=O)(=O)NC(=O)c2cc(C)n(-c3ncccc3Br)n2)c1 [Example 301] | 100 | 90
22 | COc1ccc(C)c(S(=O)(=O)NC(=O)c2cn(C)c(-c3cccnc3Cl)n2)c1 [Example 565] | 100 | 100
23 | COc1ccccc1S(=O)(=O)NC(=O)c1cn(C)c(-c2ccccc2Cl)n1 [Example 59] | 90 | 100
24 | COc1cccc(S(=O)(=O)NC(=O)c2cn(C)c(-c3c(F)cccc3F)n2)c1 [Example 388] | 90 | 100
25 | Cn1cc(C(=O)NS(=O)(=O)c2sc(Cl)cc2Br)nc1-c1c(F)cccc1F [Example 211] | 100 | 100
26 | Cn1cc(C(=O)NS(=O)(=O)c2ccccc2Cl)nc1-c1cccnc1Cl [Example 490] | 90 | 100
27 | Cc1ccccc1S(=O)(=O)NC(=O)c1nc(-c2c(F)cccc2F)n(C)n1 [Example 159] | 90 | 100
28 | COc1ccccc1S(=O)(=O)NC(=O)c1cn(C)c(-c2ncccc2Cl)n1 [Example 574] | 100 | 100

Row | SMILES | pest or weed control at 500 g/ha (Myzus persicae [1]) [%] | pest or weed control at 20 ppm (Myzus persicae [2]) [%]
29 | Cc1ccccc1S(=O)(=O)NC(=O)c1cn(C)c(-c2c(F)cccc2Cl)n1 [Example 110] | 90 | 100
30 | Cn1cc(C(=O)NS(=O)(=O)CC(F)(F)F)nc1-c1ccccc1Cl [Example 66] | 100 | 100
31 | Cn1cc(C(=O)NS(=O)(=O)c2ccccc2Cl)nc1-c1ccccc1F [Example 94] | 100 | 100
32 | CCn1cc(C(=O)NS(=O)(=O)c2ccccc2C)nc1-c1c(F)cccc1F [Example 570] | 100 | 100
33 | Cn1cc(C(=O)NS(=O)(=O)c2ccccc2)nc1-c1c(F)cccc1Cl [Example 112] | 90 | 100
34 | Cc1cc(C(=O)NS(=O)(=O)c2c(Cl)cccc2Cl)nn1-c1ncccc1Cl [Example 268] | 90 | 100
35 | Cc1ccccc1S(=O)(=O)NC(=O)c1cc(C)n(-c2ncccc2Br)n1 [Example 297] | 90 | 100
36 | COc1ccc(OC)c(S(=O)(=O)NC(=O)c2cn(C)c(-c3c(F)cccc3F)n2)c1 [Example 19] | 90 | 100
37 | Cn1cc(C(=O)NS(=O)(=O)c2ccccc2Cl)nc1-c1c(F)cccc1C#N [Example 501] | 100 | 100
38 | COc1ccccc1S(=O)(=O)NC(=O)c1cn(C)c(-c2cccnc2Cl)n1 [Example 492] | 100 | 100
39 | Cc1cccc([N+](=O)[O-])c1S(=O)(=O)NC(=O)c1cn(C)c(-c2c(F)cccc2F)n1 [Example 367] | 90 | 100
40 | COc1ccc(F)cc1S(=O)(=O)NC(=O)c1cn(C)c(-c2cccc(Cl)c2Cl)n1 [Example 463] | 100 | 100
41 | Cn1nc(C(=O)NS(=O)(=O)c2ccccc2Cl)nc1-c1c(F)cccc1F [Example 11] | 100 | 100
42 | COc1ccccc1S(=O)(=O)NC(=O)c1cn(C)c(-c2c(F)cc(F)cc2F)n1 [Example 7] | 90 | 90
43 | COc1ccc(Cl)c(S(=O)(=O)NC(=O)c2nc(-c3c(F)cccc3F)c(C)[nH]2)c1 [Example 148] | 90 | 100
44 | Cn1cc(C(=O)NS(=O)(=O)c2ccccc2C(F)(F)F)nc1-c1c(F)cccc1F [Example 26] | 100 | 100
45 | COc1ccc([N+](=O)[O-])c(S(=O)(=O)NC(=O)c2cn(C)c(-c3c(F)cccc3F)n2)c1 [Example 389] | 90 | 100
46 | COc1cc(C)ccc1S(=O)(=O)NC(=O)c1cn(C)c(-c2c(F)cccc2F)n1 [Example 447] | 90 | 100
47 | Cn1cc(C(=O)NS(=O)(=O)c2ccccc2C(F)(F)F)nc1-c1ccccc1F [Example 30] | 90 | 100
48 | COc1cccc(F)c1S(=O)(=O)NC(=O)c1cn(C)c(-c2c(F)cccc2F)n1 [Example 381] | 100 | 100
49 | COc1ccc(C)cc1S(=O)(=O)NC(=O)c1cn(C)c(-c2c(F)cccc2F)n1 [Example 390] | 100 | 100
50 | COc1ccc(F)cc1S(=O)(=O)NC(=O)c1cn(C)c(-c2ncccc2Cl)n1 [Example 591] | 100 | 100
51 | Cn1cc(C(=O)NS(=O)(=O)c2ccccc2Cl)nc1-c1ccccc1[N+](=O)[O-] [Example 524] | 90 | 100
52 | Cn1cc(C(=O)NS(=O)(=O)c2c(F)cccc2F)nc1-c1c(Cl)cccc1Cl [Example 24] | 90 | –
53 | COc1ccc(Cl)c(S(=O)(=O)NC(=O)c2cnc(-c3c(F)cccc3F)n2C)c1 [Example 160] | 90 | –
54 | COc1cc(C)c(S(=O)(=O)NC(=O)c2cn(C)c(-c3c(F)cccc3F)n2)cc1C [Example 138] | 100 | –
55 | COc1ccccc1S(=O)(=O)NC(=O)c1cn(C)c(-c2cc(F)ccc2F)n1 [Example 526] | 90 | –
